Laboratory results published in US20080293785A1, “SUBSTITUTED BENZOTHIAZOLE KINASE INHIBITORS” (priority 2006, published 2008).
Like-named read-outs stand apart in the source and are kept apart here.

Key:
[1] = target: T1, CDK1:Cyclin-B (Homo sapiens, UniProt P06493); assay: CDK1 Screening Assay; assay type: biochemical; details: 10 μM ATP, biotinylated histone-H1 peptide substrate, 33P-γ-ATP FlashPlate; read-out: Kinase IC50 CDK1
T1 construct: purchased New England Biolabs, Beverly, Mass; 6020; host or cells: insect cells
Description: (§1) A kinase reaction mixture was prepared containing 50 mM Tris.HCl pH=8, 10 mM MgCl2, 0.1 mM Na3PO4, 1 mM DTT, 10 μM ATP, 0.025 μM biotinylated histone-H1 peptide substrate and 0.2 μCuries per well ^33P-γ-ATP (2000-3000 Ci/mmol). 70 μL of the kinase reaction mixture was dispensed into the well of a streptavidin coated FlashPlate™ (Cat. # SMP103, NEN, Boston, Mass.). Then 1 μL of test compound stock in 100% DMSO was added to the wells resulting in a final concentration of 1% DMSO in the reaction well with a 100 μL final reaction well volume.
(§2) The CDK1:Cyclin-B protein was diluted in 50 mM Tris.HCl pH=8.0, 0.1% BSA at a concentration of 1 ng per μL and 30 μL (30 ng enzyme per test well) was added to each well to initiate the reaction. The reaction was incubated for one hour at 30° C. At the end of the one hour incubation, the reaction was terminated by aspirating the mixture from the plate and washing the wells twice with PBS containing 100 mM EDTA. The histone-H1 biotinylated peptide substrate became immobilized on the Flashplate™ and the incorporation of ^33P-γ-ATP was measured by reading the plate on a scintillation counter. Inhibition of the enzymatic activity of CDK1 was measured by observing a reduced amount of ^33P-γ-ATP incorporated into the immobilized peptide.
The CDK1 kinase used was isolated from insect cells expressing both the human CDK1 catalytic subunit and its positive regulatory subunit cyclin B (New England Biolabs, Beverly, Mass., Cat. # 6020).
(§3) An IC50 listed as >0.1, >1, >10 or >100 means no observed 50% inhibition at the indicated test concentration. […] ND means the compound was not tested in the assay specified.

[2] = target: T2, CDK2:Cyclin A (Homo sapiens, UniProt P24941); assay: CDK2 Screening Assay; assay type: biochemical; details: 10 μM ATP, biotinylated histone-H1 peptide substrate, 33P-γ-ATP FlashPlate; read-out: Kinase IC50 CDK2
T2 construct: purchased Upstate Biotech, Lake Placid, N.Y
Description: as §1
as §2, with “CDK2:Cyclin A” for “CDK1:Cyclin-B”, “CDK2” for “CDK1”
The CDK2 kinase used was complexed with cyclin A and is commercially available (Upstate Biotech, Lake Placid, N.Y.).
as §3

[3] = target: VEGF-R2 kinase domain (Rattus norvegicus, UniProt O08775); assay: VEGF-R2 Screening Assay; assay type: biochemical; details: 10 μM ATP, biotinylated PLC1 peptide substrate, 33P-γ-ATP FlashPlate; read-out: Kinase IC50 VEGFR
Description: as §1, with “biotinylated” for “biotinylated histone-H1”, “0.8” for “0.2”
The soluble rat tyrosine kinase containing an N-terminal 6×HIS tag was diluted in 50 mM Tris.HCl pH=8.0, 0.1% BSA at a concentration of 5 ng per μL and 30 μL (150 ng enzyme per test well) was added to each well to initiate the reaction. The reaction was incubated for one hour at 30° C. At the end of the one hour incubation, the reaction was terminated by aspirating the reaction mixture from the plate and washing the wells twice with PBS containing 100 mM EDTA. The PLC1 biotinylated peptide substrate became immobilized on the Flashplate™ and the incorporation of ^33P-γ-ATP was measured by reading the plate on a scintillation counter. Inhibition of the enzymatic activity of the VEGF-R was measured by observing a reduced amount of ^33P-γ-ATP incorporated into the immobilized peptide.
The VEGF-R kinase assay was carried out using the CDK kinase assay procedure except that the enzyme was replaced with the VEGF-R2 fusion protein containing a polyhistidine tag at the N-terminus followed by amino acids 786-1343 of the rat VEGF-R2 kinase domain (GenBank Accession #U93306).
as §3

[4] = tested on: HeLa cervical adenocarcinoma; assay: Inhibition of cell proliferation (14C-thymidine incorporation), HeLa; assay type: cell-based
Description: (§4) The ability of a test compound to inhibit the proliferation of cell growth was determined by measuring incorporation of ^14C-labelled thymidine into newly synthesized DNA within the cells. This method was used on American Type Culture Collection (ATCC, Virginia) cell lines derived from carcinomas originating from several tissues such as HeLa cervical adenocarcinoma (ATCC Cat. #CCL-2), A375 malignant melanoma (ATCC Cat. #CRL-1619) and HCT-116 colon carcinoma (ATCC Cat. #CCL-247).
(§5) The carcinoma cells were trypsinized and counted. The cells (3000-8000 count) were added to each well of a 96-well CytoStar tissue culture treated scintillating microplate (Amersham #RPNQ0160) in complete medium (100 μL) and the plate was incubated in complete medium for 24 hrs at 37° C. in an […] containing 5% CO2.
Test compound (1 μL) in 100% DMSO was added to the plate test-wells with DMSO only added to control-wells. The plate is incubated in complete medium for a second 24 hr period at 37° C. in an atmosphere containing 5% CO2.
An aliquot of a solution of Methyl ^14C-thymidine (56 mCi/mmol) (NEN #NEC568 or Amersham #CFA532) in complete medium (20 uL to provide […]) was also added to each well and the plate was incubated for a third 24 hr period at 37° C. in an atmosphere containing 5% CO2.
The plate contents were discarded and the plate was washed twice with PBS (200 μL), then PBS (200 μL) was added to each well. The plate was sealed and the degree of methyl ^14C-thymidine incorporation is quantified on a Packard Top Count.
An IC50 value shown as >10 or >100 means that 50% inhibition was not observed at the highest concentration.

[5] = tested on: HCT-116 colon carcinoma; assay: Inhibition of cell proliferation (14C-thymidine incorporation), HCT116; assay type: cell-based; details: Homo sapiens, HCT116, 14C-thymidine incorporation
Description: as §4, §5
(§6) Test compound (1 μL) in 100% DMSO was added to the plate test-wells with DMSO only added to control-wells. The plate is incubated in complete medium for a second 24 hr period at 37° C. in an atmosphere containing 5% CO2. […]
(§7) The plate contents were discarded and the plate was washed twice with PBS (200 μL), then PBS (200 μL) was added to each well. The plate was sealed and the degree of methyl ^14C-thymidine incorporation is quantified on a Packard Top Count. […]

[6] = tested on: A375 malignant melanoma; assay: Inhibition of cell proliferation (14C-thymidine incorporation), A375; assay type: cell-based; details: Homo sapiens, A-375; A375, 14C-thymidine incorporation
Description: as §4, §5, §6, §7

T1 sequence (P06493 whole entry): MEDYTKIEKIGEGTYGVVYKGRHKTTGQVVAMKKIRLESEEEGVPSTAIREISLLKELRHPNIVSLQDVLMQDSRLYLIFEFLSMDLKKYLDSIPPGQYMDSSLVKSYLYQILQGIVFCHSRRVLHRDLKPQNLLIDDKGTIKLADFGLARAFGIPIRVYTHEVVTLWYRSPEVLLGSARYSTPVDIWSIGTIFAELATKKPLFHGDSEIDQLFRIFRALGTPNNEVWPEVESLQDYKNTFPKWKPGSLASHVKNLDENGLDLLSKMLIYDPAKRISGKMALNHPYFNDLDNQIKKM
T1 sequence (P14635 whole entry partner): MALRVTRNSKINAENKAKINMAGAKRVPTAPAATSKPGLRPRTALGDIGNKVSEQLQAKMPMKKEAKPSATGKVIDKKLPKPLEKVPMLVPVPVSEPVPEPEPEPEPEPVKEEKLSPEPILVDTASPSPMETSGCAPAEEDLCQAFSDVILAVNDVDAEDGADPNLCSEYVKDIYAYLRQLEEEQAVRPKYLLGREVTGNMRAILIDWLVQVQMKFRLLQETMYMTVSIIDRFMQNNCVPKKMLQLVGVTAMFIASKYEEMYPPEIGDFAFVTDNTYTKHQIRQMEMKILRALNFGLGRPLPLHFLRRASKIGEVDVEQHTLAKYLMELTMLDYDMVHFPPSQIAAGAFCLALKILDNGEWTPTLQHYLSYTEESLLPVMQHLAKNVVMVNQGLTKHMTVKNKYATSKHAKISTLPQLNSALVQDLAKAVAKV
Chain of VEGF-R2 kinase domain (O08775 786-1343): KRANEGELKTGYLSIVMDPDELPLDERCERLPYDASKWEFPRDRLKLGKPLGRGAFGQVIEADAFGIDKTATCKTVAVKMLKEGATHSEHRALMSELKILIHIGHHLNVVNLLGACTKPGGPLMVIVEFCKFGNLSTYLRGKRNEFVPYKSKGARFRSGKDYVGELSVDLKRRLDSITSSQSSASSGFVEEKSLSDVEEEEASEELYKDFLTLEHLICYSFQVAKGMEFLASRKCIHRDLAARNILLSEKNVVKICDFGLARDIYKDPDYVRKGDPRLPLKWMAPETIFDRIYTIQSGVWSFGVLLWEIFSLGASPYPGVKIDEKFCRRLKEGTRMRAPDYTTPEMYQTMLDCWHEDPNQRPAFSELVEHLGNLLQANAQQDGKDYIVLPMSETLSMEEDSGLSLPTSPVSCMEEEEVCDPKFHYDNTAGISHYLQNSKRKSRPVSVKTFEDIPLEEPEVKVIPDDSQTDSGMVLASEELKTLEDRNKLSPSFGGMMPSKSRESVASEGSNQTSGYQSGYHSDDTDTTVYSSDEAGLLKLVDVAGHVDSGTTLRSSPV

Molecule	IC50 [1]	IC50 [2]	IC50 [3]	IC50 ([4]; Homo sapiens)	IC50 [5]	IC50 [6]	IC50 [4]
1-(2,6-difluoro-phenyl)-3-(2-phenylamino-benzothiazol-7-yl)-urea [Cpd 1]	> 100 µM	> 100 µM	~100 µM	–	–	–	> 10 µM
O=C(Nc1ccccc1)Nc1cccc2nc(Nc3ccccc3)sc12 [Cpd 3, 1-phenyl-3-(2-phenylamino-benzothiazol-7-yl)-urea]	> 100 µM	> 100 µM	> 100 µM	> 10 µM	–	–	–
Cc1ccc(F)c(C(=O)Nc2cccc3sc(Nc4ccccc4)nc23)c1F [Cpd 48, 2,6-difluoro-3-methyl-N-(2-phenylamino-benzothiazol-4-yl)-benzamide]	1.55 µM	0.156 µM	4.58 µM	20.6 µM	5.04 µM	10.4 µM	–
Cc1ccc(F)c(C(=O)N(C)c2cccc3sc(Nc4ccccc4)nc23)c1F [Cpd 62, 2,6-difluoro-3,N-dimethyl-N-(2-phenylamino-benzothiazol-4-yl)-benzamide]	> 100 µM	> 100 µM	> 100 µM	–	–	–	–

Now from value to molecule, other results behind:

IC50 [1]	IC50 [2]	IC50 [3]	IC50 ([4]; Homo sapiens)	IC50 [5]	IC50 [6]	Molecule	IC50 [4]
> 100 µM	> 100 µM	> 100 µM	> 100 µM	–	–	O=C(Nc1ccc2nc(Nc3ccccc3)sc2c1)Nc1c(F)cccc1F [Cpd 2, 1-(2,6-difluoro-phenyl)-3-(2-phenylamino-benzothiazol-6-yl)-urea]	–
> 100 µM	> 100 µM	> 100 µM	> 10 µM	–	–	O=C(Nc1ccc(Cl)c(Cl)c1)Nc1cccc2nc(Nc3ccccc3)sc12 [Cpd 4, 1-(3,4-dichloro-phenyl)-3-(2-phenylamino-benzothiazol-7-yl)-urea]	–
> 100 µM	> 100 µM	> 100 µM	> 10 µM	–	–	O=C(Nc1ccccc1)Nc1cccc2sc(Nc3ccccc3)nc12 [Cpd 5, 1-phenyl-3-(2-phenylamino-benzothiazol-4-yl)-urea]	–
> 100 µM	5.76 µM	> 100 µM	72.7 µM	–	–	O=C(Nc1c(F)cccc1F)Nc1cccc2sc(Nc3ccccc3)nc12 [Cpd 6, 1-(2,6-difluoro-phenyl)-3-(2-phenylamino-benzothiazol-4-yl)-urea]	–
